{"source": "patent US20210290581A1", "about": "“NEUROREGENERATION IMPROVED BY KETONE” (UNIVERSITY OF SOUTH FLORIDA, priority 2016, published 2021)", "key": {"rat primary neurons [1]": {"tested_on": "rat primary neurons", "assay": "immunofluorescence staining of the scratch assay (cell nuclei, Beta tubulin, synapsins)", "type": "cell-based, Sprague Dawley rats", "conditions": "2 mM; after 24 hours; 10×, 20×, 60×; compared to control", "description": "(§1) Cortical neurons from embryonic (E18) Sprague Dawley rats were isolated and cultured as described in Katnic, Guerrero et al. 2006. Briefly, excised brains were digested with 0.25% trypsin. Isolated cells were suspended in DMEM supplemented with fetal bovine serum (FBS, 10%, heat inactivated), penicillin (100 IU/ml), streptomycin ([…]) and amphotericin B1 ([…]) (Antibiotic/Antimycotic) and plated on poly-L-lysine coated coverslips. Following 24 hour incubation, the DMEM solution was replaced with Neurobasal media supplemented with B-27 (10 ml) and 0.5 mM L-glutamine. 3 week old rat primary neurons were exposed to 2 mM R,S-Sodium-3-hydroxibutyrate. The cell monolayer was scraped with a P100 pipette tip to create a scratch. Cell debris was removed by washing with culture medium. 100 snapshots were taken of the cell migration/cell regeneration into the scratch space over 24 hours by CytoSmart system.\nThe primary neurons underwent immunofluorescence staining. This fluorescence imaging on the scratch assay (after 24 hours/3-week old primary neurons) can be seen in FIGS. 6A-6B, 7A-7B, 8A-8B, and 9A-9B. The images have been lightened for illustrative purposes. Each of these figures includes four (4) images, labeled as I-IV. […]"}, "rat primary neurons [2]": {"tested_on": "rat primary neurons", "assay": "scratch assay in primary neuronal cell cultures followed for 24 hours with CytoSmart system", "type": "cell-based, Sprague Dawley rats", "conditions": "2 mM", "description": "Ketone bodies serve as alternative fuel for the brain when glucose availability is limited. In humans, BHB is synthesized in the liver from acetoacetate, the first ketone produced in the fasting state. Its biosynthesis is catalyzed by the enzyme beta-hydroxybutyrate dehydrogenase. The effect of ketone bodies on cell regeneration in primary neuronal cell cultures was tested by using a scratch assay that was followed for 24 hours with a CYTOSMART system.\nas §1"}}, "data": [{"smiles": "CC(O)CC(=O)[O-].[Na+]", "note": "(centres unmarked) [R,S-Sodium-3-hydroxibutyrate]", "values": [{"measurement": "cell nuclei visible around the regeneration site and in the scratch area", "setting": "rat primary neurons [1]", "value": "More cell nuclei are visible around the regeneration site"}, {"measurement": "density of synapsins and tubulin at the regeneration site", "setting": "rat primary neurons [1]", "value": "higher density of synapsins and tubulin"}, {"measurement": "DAPI stained cell nuclei in the scratch space area", "setting": "rat primary neurons [2]; 24 hours, 20× (p=0.01) and 10× (p=0.0004) magnification, versus control", "value": "significantly more DAPI stained cell nuclei"}, {"measurement": "increase in cell coverage per 24 hours", "setting": "rat primary neurons [2]; 24 hours, control about 0.9%", "value": "about 3.3%"}, {"measurement": "cell migration and regeneration of the damaged area", "setting": "rat primary neurons [2]; over the 24-hour period, versus control", "value": "more intense cell migration and regeneration of the damaged area"}]}]}
